{"source": "paper PMC8609006", "about": "“Design of modular autoproteolytic gene switches responsive to anti-coronavirus drug candidates” (Nature Communications, 2021)", "target": "T1, SARS-CoV-2 Mpro (Mpro(S2), 3CLpro) (Severe acute respiratory syndrome coronavirus 2, UniProt P0DTD1)", "T1 construct": "gene rep; mature Mpro (nsp5) cut from polyprotein pp1a/pp1ab, human codon-optimized, fused N-terminally to TetR-MproCSOPT-VP64 (pNF167), expressed in HEK293T; TAGS plasmids OK425851-OK425853 (not assigned singly)", "assay_type": "cell-based"}
{"smiles": "CC(C)(C)NC(=O)N[C@H](C(=O)N1C[C@H]2[C@@H]([C@H]1C(=O)NC(CC1CCC1)C(=O)C(N)=O)C2(C)C)C(C)(C)C", "note": "(stereo partly shown) [Boceprevir]", "values": [{"measurement": "Mpro-TAGS nanoLuc gain-of-signal reporter in HEK293T cells, 24 h", "result": "GRL-0496 and Boceprevir only slightly induced gene expression"}]}
